These results are taken from ChEMBL document CHEMBL4765292, “Flexible diaminodihydrotriazine inhibitors of Plasmodium falciparum dihydrofolate reductase: Binding strengths, modes of binding and their antimalarial activities” (Eur J Med Chem, 2020).

The subject of data set [1] is Plasmodium falciparum. As to the kind of experiment: Antimalarial activity against Plasmodium falciparum K1CB1 harboring DHFR […] mutant infected in human erythrocytes assessed as reduction in [3H]-hypoxanthine incorporation pretreated for 20 hrs followed by [3H]-hypoxanthine addition measured after 20 hrs by radioactivity method. Particulars: K1CB1, Erythrocyte. Type of data set: functional, organism-based.

The nature of data set [2]: Inhibition of Plasmodium falciparum DHFR […] mutant expressed in Escherichia coli BL21 using DHF as substrate by spectrophotometric analysis.
Data set [3] in a line: Inhibition of Plasmodium falciparum DHFR N51I/C59R/S108N/I164L mutant expressed in Escherichia coli BL21 using DHF as substrate by spectrophotometric analysis.
For data set [4], the system named is Plasmodium falciparum. Briefly: Antimalarial activity against Plasmodium falciparum T9/94 RC17 harboring DHFR A16V/S108T mutant infected in human erythrocytes assessed as reduction in [3H]-hypoxanthine incorporation pretreated for 20 hrs followed by [3H]-hypoxanthine addition measured after 20 hrs by radioactivity method. Format: functional, organism-based. Particulars: T9/94 RC17, Erythrocyte.

A short description of data set [5]: Inhibition of Plasmodium falciparum DHFR expressed in Escherichia coli BL21 using DHF as substrate by spectrophotometric analysis.
In data set [6] the test system is Plasmodium falciparum. Briefly: Antimalarial activity against Plasmodium falciparum CsI-2 harboring DHFR C59R/S108N/I164L mutant infected in human erythrocytes assessed as reduction in [3H]-hypoxanthine incorporation pretreated for 20 hrs followed by [3H]-hypoxanthine addition measured after 20 hrs by radioactivity method. The following applies: CsI-2, Erythrocyte. Type of data set: functional, organism-based.

The test system of data set [7] is Plasmodium falciparum. Briefly: Antimalarial activity against Plasmodium falciparum W2 harboring DHFR N51I/C59R/S108N mutant infected in human erythrocytes assessed as reduction in [3H]-hypoxanthine incorporation pretreated for 20 hrs followed by [3H]-hypoxanthine addition measured after 20 hrs by radioactivity method. The following applies: W2, Erythrocyte. Format: functional, organism-based.

The nature of data set [8]: Inhibition of Plasmodium falciparum DHFR N51I/C59R/S108N mutant expressed in Escherichia coli BL21 using DHF as substrate by spectrophotometric analysis.
Data set [9] deals with Plasmodium falciparum. Briefly: Antimalarial activity against Plasmodium falciparum V1/S harboring DHFR N51I/C59R/S108N/I164L mutant infected in human erythrocytes assessed as reduction in [3H]-hypoxanthine incorporation pretreated for 20 hrs followed by [3H]-hypoxanthine addition measured after 20 hrs by radioactivity method. The following applies: Erythrocyte. Format: functional, organism-based.

Data set [10] deals with Plasmodium falciparum. Briefly: Antimalarial activity against Plasmodium falciparum TM4/8.2 infected in human erythrocytes assessed as reduction in [3H]-hypoxanthine incorporation pretreated for 20 hrs followed by [3H]-hypoxanthine addition measured after 20 hrs by radioactivity method. Format: functional, organism-based.
Data set [11] is described as follows: Inhibition of Plasmodium falciparum DHFR A16V/S108T mutant expressed in Escherichia coli BL21 using DHF as substrate by spectrophotometric analysis.
Data set [12] in a line: Inhibition of Plasmodium falciparum DHFR C59R/S108N/I164L mutant expressed in Escherichia coli BL21 using DHF as substrate by spectrophotometric analysis.
Data set [13] has as its system DHFR (human against Plasmodium falciparum DHFR). Briefly: Selectivity index, ratio of Ki for human DHFR expressed in Escherichia coli BL21 to Ki for Plasmodium falciparum DHFR expressed in Escherichia coli BL21. Type of data set: toxicity. Particulars: read-out: Ratio Ki.
For another data set, the system named is Vero. Briefly: Cytotoxicity against African green monkey Vero cells assessed as reduction in cell viability incubated for 72 hrs by SRB assay. Format: cell-based. Particulars: Chlorocebus sabaeus. A general note: Sulforhodamine B stains cellular protein and so reports cell mass.
Data set [14] deals with DHFR (human against Plasmodium falciparum DHFR N51I/C59R/S108N/I164L mutant). As to the kind of experiment: Selectivity index, ratio of Ki for human DHFR expressed in Escherichia coli BL21 to Ki for Plasmodium falciparum DHFR N51I/C59R/S108N/I164L mutant expressed in Escherichia coli BL21. Type of data set: toxicity. The following applies: read-out: Ratio Ki.
The nature of data set [15]: Therapeutic index, ratio of IC50 for African green monkey Vero cells to IC50 for Plasmodium falciparum K1CB1 harboring DHFR […] mutant. Format: toxicity. Particulars: read-out: Ratio IC50.
Data set [16] in a line: Therapeutic index, ratio of IC50 for African green monkey Vero cells to IC50 for Plasmodium falciparum TM4/8.2. Format: toxicity. The following applies: against Plasmodium falciparum TM4/8.2, read-out: Ratio IC50.
Data set [17] relates to DHFR (human against Plasmodium falciparum DHFR double mutant). Briefly: Selectivity index, ratio of Ki for human DHFR expressed in Escherichia coli BL21 to Ki for Plasmodium falciparum DHFR double mutant expressed in Escherichia coli BL21. Format: toxicity. Particulars: read-out: Ratio Ki.
A short description of data set [18]: Therapeutic index, ratio of IC50 for African green monkey Vero cells to IC50 for Plasmodium falciparum V1/S harboring DHFR N51I/C59R/S108N/I164L mutant. Format: toxicity. The following applies: read-out: Ratio IC50.

The structures appear in SMILES notation. Some results are limits rather than exact numbers.

In the case of `CC1(C)N=C(N)N=C(N)N1OCCCNS(=O)(=O)c1ccccc1`, the IC50 (as a rule, the concentration that inhibits the measured activity by half) was 5400 nM in the data set with Plasmodium falciparum [1]; 2200 nM in the data set with Plasmodium falciparum [4]; 73400 nM in the data set on Plasmodium falciparum [6]; 15200 nM in the data set on Plasmodium falciparum [7]; 61900 nM with Plasmodium falciparum [9]; 51 nM in the data set with Plasmodium falciparum [10]. The inhibition constant Ki (commonly the dissociation constant of the complex between target and ligand, obtained from inhibition or displacement) in data set [2] is 4.3 nM; in data set [3], 184 nM; in [5] it was 0.8 nM; in [8], 10 nM; in data set [11], 61 nM; in data set [12] it was 51 nM.
Take `CC1N=C(N)N=C(N)N1OCCCOc1ccc(Cl)cc1` (stereo not drawn): the IC50 was 29 nM with Plasmodium falciparum [1]; greater than 50000 nM in the data set with Vero; 380 nM with Plasmodium falciparum [6]; 120 nM in the data set with Plasmodium falciparum [7]; 820 nM with Plasmodium falciparum [9]; 30 nM with Plasmodium falciparum [10]. For the same compound, the selectivity ratio in data set [13] is 290; in [14], 64; in data set [15], greater than 1720; in data set [16], greater than 1670; in data set [17], 166; in data set [18] it was greater than 61. Also, the Ki was 0.7 nM in data set [2]; 1.8 nM in data set [3]; 0.4 nM in data set [5]; 0.9 nM in data set [8]; 1.9 nM in data set [11]; 1.4 nM in data set [12].
In the case of `Cc1ccc(S(=O)(=O)NCCCON2C(N)=NC(N)=NC2(C)C)cc1`, the half-maximal inhibitory concentration (IC50) in the data set on Plasmodium falciparum [1] worked out at 9600 nM; in the data set on Plasmodium falciparum [4] it was 3900 nM; with Plasmodium falciparum [6] it was 31200 nM; in the data set on Plasmodium falciparum [7], 15100 nM; in the data set on Plasmodium falciparum [9] it was 23500 nM; in the data set with Plasmodium falciparum [10], 440 nM. The Ki was found to be 4 nM in data set [2]; 143 nM in [3]; 1 nM in data set [5]; 7.5 nM in [8]; 186 nM in data set [11]; 73 nM in [12].
In the case of `CC1(C)N=C(N)N=C(N)N1OCCNS(=O)(=O)c1ccc(Cl)cc1`, the IC50 with Plasmodium falciparum [1] is 5900 nM; in the data set with Plasmodium falciparum [4], 3800 nM; in the data set on Plasmodium falciparum [6], 25300 nM; with Plasmodium falciparum [7], 12700 nM; in the data set with Plasmodium falciparum [9], greater than 50000 nM; in the data set with Plasmodium falciparum [10], 1200 nM. For the same compound, the Ki in [2] turned out to be 4.7 nM; in data set [3], 127 nM; in data set [5], 1.3 nM; in [8] it was 10.2 nM; in data set [11], 133 nM; in data set [12] it was 114 nM.
For `Cc1ccc(S(=O)(=O)NCCON2C(N)=NC(N)=NC2(C)C)cc1`, the IC50 with Plasmodium falciparum [1] was determined as 9700 nM; with Plasmodium falciparum [4] it was 18700 nM; in the data set with Plasmodium falciparum [6] it was 63300 nM; with Plasmodium falciparum [7], 21500 nM; in the data set on Plasmodium falciparum [9], 62200 nM; with Plasmodium falciparum [10], 2000 nM. For the same compound, the Ki in data set [2] amounted to 6.4 nM; in data set [3] it was 229 nM; in data set [5], 1.8 nM; in data set [8] it was 10.2 nM; in data set [11] it was 308 nM; in data set [12], 139 nM.
Regarding `CC1(C)N=C(N)N=C(N)N1OCCNS(=O)(=O)c1ccc([N+](=O)[O-])cc1`, the IC50 in the data set on Plasmodium falciparum [1] worked out at 3100 nM; in the data set with Plasmodium falciparum [4], 3500 nM; with Plasmodium falciparum [6] it was 3500 nM; in the data set on Plasmodium falciparum [7], 3600 nM; in the data set with Plasmodium falciparum [9], 3500 nM; in the data set on Plasmodium falciparum [10], 2200 nM. Besides, the Ki in data set [2] came out at 9.85 nM; in [3], 235 nM; in data set [5], 3.2 nM; in data set [8], 17.9 nM; in data set [11], 222 nM; in data set [12], 229 nM.
As to `CC1(C)N=C(N)N=C(N)N1OCCNS(=O)(=O)c1ccccc1`, the IC50 in the data set with Plasmodium falciparum [1] was found to be 10000 nM; in the data set on Plasmodium falciparum [4], 15000 nM; with Plasmodium falciparum [6], 76500 nM; in the data set on Plasmodium falciparum [7], 26000 nM; in the data set on Plasmodium falciparum [9], 77400 nM; in the data set on Plasmodium falciparum [10], 4400 nM. Further, the Ki in data set [2] is 4.8 nM; in data set [3] it was 234 nM; in data set [5], 2.7 nM; in data set [8] it was 5.8 nM; in data set [11], 215 nM; in data set [12] it was 169 nM.
On to `CC1(C)N=C(N)N=C(N)N1OCCCNC(=O)c1ccccc1`, for which the IC50 with Plasmodium falciparum [1] turned out to be 230 nM; in the data set with Plasmodium falciparum [4], 40 nM; in the data set on Plasmodium falciparum [6], 2400 nM; with Plasmodium falciparum [7], 230 nM; in the data set on Plasmodium falciparum [9], 5400 nM; with Plasmodium falciparum [10] it was 29 nM. Moreover, the Ki in [2] was found to be 2.6 nM; in data set [3], 13.8 nM; in data set [5], 1.4 nM; in data set [8], 2.6 nM; in data set [11], 14.7 nM; in data set [12], 6.9 nM.
In the case of `CC1N=C(N)N=C(N)N1OCCCOc1ccc(F)cc1Cl` (stereo not drawn), the IC50 was 5.2 nM in the data set with Plasmodium falciparum [1]; greater than 50000 nM in the data set on Vero; 47 nM in the data set on Plasmodium falciparum [6]; 33 nM with Plasmodium falciparum [7]; 290 nM in the data set on Plasmodium falciparum [9]; 23 nM in the data set with Plasmodium falciparum [10]. For the same compound, the selectivity ratio in [13] is 229; in data set [14], 70; in data set [15], greater than 9620; in [16], greater than 2170; in [17] it was 131; in data set [18], greater than 172. Also, the Ki in [2] was 0.7 nM; in data set [3] it was 1.3 nM; in [5] it was 0.4 nM; in [8] it was 0.8 nM; in data set [11], 1.8 nM; in data set [12], 1.6 nM.
In the case of `CC1N=C(N)N=C(N)N1OCCCOc1cccc(Cl)c1Cl` (stereo not drawn), the IC50 was 5.9 nM in the data set with Plasmodium falciparum [1]; 5910 nM with Vero; 62 nM in the data set on Plasmodium falciparum [6]; 150 nM in the data set on Plasmodium falciparum [7]; 210 nM with Plasmodium falciparum [9]; 1.3 nM in the data set with Plasmodium falciparum [10]. Also, the selectivity ratio in data set [13] was 49; in data set [14], 16; in data set [15] it was 1000; in data set [16], 4550; in [17] it was 33; in data set [18], 28. Moreover, the Ki in data set [2] was 0.6 nM; in data set [3], 1.2 nM; in data set [5] it was 0.4 nM; in data set [8], 0.6 nM; in data set [11], 1.8 nM; in [12], 1.2 nM.
As to `CC1(C)NC(N)=NC(=N)N1OCCCCOc1ccccc1`, the IC50 in the data set with Plasmodium falciparum [1] was determined as 33 nM; in the data set on Vero, 9800 nM; in the data set on Plasmodium falciparum [6] it was 220 nM; with Plasmodium falciparum [7], 46 nM; with Plasmodium falciparum [9] it was 220 nM; with Plasmodium falciparum [10], 2.9 nM. The selectivity ratio in data set [13] came out at 57; in [14], 23; in data set [15], 297; in data set [16], 3380; in [17], 35; in data set [18] it was 45. The inhibitory constant (Ki) in data set [2] amounted to 1.3 nM; in [3] it was 2 nM; in [5], 0.8 nM; in data set [8] it was 1.6 nM; in [11] it was 3.2 nM; in data set [12], 1.7 nM.
For `CC1(C)N=C(N)N=C(N)N1c1ccc(Cl)cc1` [CYCLOGUANIL], the IC50 with Plasmodium falciparum [1] is 2400 nM; in the data set with Plasmodium falciparum [4] it was 3700 nM; with Plasmodium falciparum [6] it was 37900 nM; in the data set on Plasmodium falciparum [7], 6080 nM; in the data set on Plasmodium falciparum [9] it was greater than 100000 nM; in the data set on Plasmodium falciparum [10], 37 nM. Moreover, the Ki in data set [2] worked out at 43.2 nM; in data set [3], 421 nM; in data set [5] it was 1.5 nM; in data set [8] it was 31.4 nM; in data set [11], 1310 nM; in data set [12] it was 285 nM.
